From US20260060957A1, “COMPOUNDS AND COMPOSITIONS USEFUL FOR TREATMENT OF PROLIFERATIVE DISEASE OR DISORDER” (University of Houston System, priority 2023, published 2026)

Experiments:
Format in all cases: cell-based, human
[1] = test system: cleaved caspase 3 (c-Casp3); experiment: Western blot of stem cells exposed to IAP antagonists and ponatinib (cleaved caspase 3); settings: BE stem cells exposed to IAP antagonist and ponatinib; six-hour exposure; FIG. 42c
Source text: Based on the properties of diverse IAP antagonists in combination with ponatinib towards BE stem cells, synthetic chemistry was employed to expand the repertoire of IAP antagonists available for these studies. A squaramide linker strategy was chosen for generating bivalent IAP antagonists based on its planar structure and separation of the headgroups that contain the peptide […] domains that interact with cIAP1, cIAP2, and XIAPs, and screened them in dose-response assays against BE stem cells in the presence and absence of ponatinib (FIG. 42d).

[2] = test system: RIPK1 S320/S166 phosphorylation, cIAP1, cIAP2, cleaved Caspase 3 in LGD stem cells; experiment: Western blot of LGD stem cells (RIPK1 phosphorylation, cIAP1/cIAP2, cleaved Caspase 3); settings: ponatinib 300 nM, 7532N 10 nM, 16 hr per FIG. 42j
[3] = test system: BE stem cells; experiment: Survival of Barrett's esophagus (BE) stem cells, high-throughput screen and dose-response
Source text: The present example describes methods used for testing the efficacy of compounds described herein. The selective growth of stem cells of cancers, of their precursor lesions, and of normal and chronically diseased epithelial tissues is described in the references below. In brief, biopsied tissues are reduced to single cell suspensions and plated onto lawns of irradiated 3T3-J2 feeder cells in specialized StemEcho media and libraries of colonies are evident in 7-10 days. Single cell-derived clones are generated by single cell FACS sorting to 384 well plates and wells with individual colonies are expanded, analyzed by molecular genetics, and grown as discrete clones.
After 2-5 days, the cells are fixed using paraformaldehyde and the human cells are labelled with human-specific antibodies followed by fluorochrome-labelled secondary antibodies. Human cell numbers are quantified via high-throughput imaging technology (CellInsight CX7 LED, Thermo), and data analyzed by Excel.
To learn more about the relative efficacy of these IAP antagonists in a synthetic lethal combination with ponatinib, we compared their effects in dose-response assays in vitro against BE stem cells. […]

For `CN[C@@H](C)C(=O)N[C@H](C(=O)N1CCC[C@H]1C(=O)N[C@H]1c2ccccc2C[C@H]1OCC#CC#CCO[C@@H]1Cc2ccccc2[C@@H]1NC(=O)[C@@H]1CCCN1C(=O)[C@@H](NC(=O)[C@H](C)NC)C1CCCCC1)C1CCCCC1` [AZD5582], the “Induction of cleaved caspase 3 (c-Casp3), western blot” value [1] was “induced a cleaved caspase 3”.

In the case of `CN[C@@H](C)C(=O)N[C@H](C(=O)N1CCC[C@H]1C(=O)N[C@H]1c2ccccc2C[C@H]1OCCOCCNc1c(NCCOCCO[C@@H]2Cc3ccccc3[C@@H]2NC(=O)[C@@H]2CCCN2C(=O)[C@@H](NC(=O)[C@H](C)NC)C2CCCCC2)c(=O)c1=O)C1CCCCC1` [Compound I-1], the “RIPK1 phosphorylation, cIAP1/cIAP2 and apoptosis in LGD stem cells, western blot” value [2] is reported as “degradation of cIAP1 and cIAP2 without inducing cleaved Caspase 3”.

In the case of `CN[C@@H](C)C(=O)N[C@H]1CCCC[C@H]2CC[C@@H](C(=O)N[C@@H](c3ccccc3)c3cn(CCCCc4ccc(CCCCn5cc([C@@H](NC(=O)[C@@H]6CC[C@@H]7CCCC[C@H](NC(=O)[C@H](C)NC)C(=O)N76)c6ccccc6)nn5)cc4)nn3)N2C1=O` [SM-164], the “Induction of cleaved caspase 3 (c-Casp3), western blot” value [1] is reported as “induced a cleaved caspase 3”.

For `Cc1cn(-c2cc(NC(=O)c3ccc(C)c(Nc4nccc(-c5cccnc5)n4)c3)cc(C(F)(F)F)c2)cn1` [nilotinib], the “Identification in high-throughput screens” value ([3]; screens against BE and ESO stem cells) was “not identified in our screens”.

With `Cc1ccc(C(=O)Nc2ccc(CN3CCN(C)CC3)c(C(F)(F)F)c2)cc1C#Cc1cnc2cccnn12` [ponatinib] the “Inhibition of BE stem cells” value ([3]; eight patient-derived BE stem cells, FIG. 40d) was 20%.
